In US11179348B2, “Combination comprising pterostilbene for the treatment of cancer” (FUNDACIÓN UNIVERSIDAD CATÓLICA DE VALENCIA SAN VICENTE …, priority 2015, dated 2021):
Marks after values point to notes of the source that are not given here.

Tests used:
ACTH = test: Plasma ACTH levels (ELISA) in tumor-bearing mice; assay type: in vivo
Text: Measurement of ACTH, Corticosterone, and NORA Levels.
Plasma levels of ACTH (Calbiotech, Inc., Spring Valley, Calif.), corticosterone (Kamiyama Biomedical Co., Seattle, Wash.), and NORA (IBL, Hamburg, Germany) were quantified by ELISA according to the instructions of the suppliers.

BxPC-3 cells = test: Effect of Pter on BxPC-3 cell growth or viability in vitro; assay type: cell-based, human; conditions: 15 μM Pter×60 min every 24 h
Method: (§1) FIG. 11. In vivo effect of Pter on human pancreatic cancer growth. […] For the doses of 20 and 40 mg Pter/kg only the point at the end of the treatment period is shown.
(§2) Human A2058, MeWo and MelJuso melanoma cells, and mouse AtT-20 pituitary corticotroph tumor cells were from the American Type Culture Collection (ATCC). Human HEMa-LP epidermal melanocytes were from Life Technologies (Grand Island, N.Y.). Human MDA-MB-231 (triple negative: ER−, PR−, HER2−) and MCF-7 (ER+, PR+, HER2−) breast adenocarcinoma, A549 lung adenocarcinoma (NSCLC), HepG2 hepatocellular carcinoma, LNCaP (AR+) and PC-3 (AR−) prostate adenocarcinoma, SK-OV-3 epithelial ovarian carcinoma, and HT-29 and Caco-2 colorectal carcinoma cells were from the American Type Culture Collection. Cells were grown in Dulbecco's modified Eagle's medium (DMEM) (Invitrogen, San Diego, Calif.), pH 7.4, supplemented with 10% heat-inactivated FCS (Biochrom KG, Berlin, Germany), 100 units/ml penicillin and 100 μg/ml streptomycin. Cells were plated, at a density of 20,000 cells/cm2, and cultured at 37° C. in a humidified atmosphere with 5% CO2. […] Cell numbers were determined using a Coulter Counter (Coulter Electronic Inc., Miami, Fla.). […] Cellular viability was assessed as previously reported (Mena, S. et al. Clin Cancer Res 13, 2658-2666 (2007)), by measuring trypan blue exclusion and leakage of lactate dehydrogenase activity.

human A375 melanoma = conditions: 20 μM Pter, 24 h, in vitro; cited from earlier work
ASPC-1 cells = test: Effect of Pter on ASPC-1 cell growth or viability in vitro; assay type: cell-based, human; conditions: 15 μM Pter×60 min every 24 h
Method: as §1, §2

AsPC-1 pancreatic cancer = test: In vivo growth of AsPC-1 pancreatic cancer xenografts; set-up: species or system human; conditions: AsPC-1-RFP; 28 days after inoculation; Pter and/or CRC
[1] = system: A549 cells isolated from tumor-bearing mice; test: Chemosensitization of cultured A549 cells isolated from xenografts; assay type: cell-based, human; conditions: 72 h-cultured, PL 0.5 μM, Chemo 1 μM VRB and 15 μM cisPt, Pter = in vivo pretreatment
Method: FIGS. 18-25. Effect of piperlongumine and I-BET762, as GSH depleting and chemosensitizing agents, in in vitro growing human melanoma, pancreatic, breast, lung, liver, prostate, ovarian, and colorectal cancer cells. Cancer cells, isolated from Pter-treated tumor-bearing mice, were cultured as indicated under Methods. Chemotherapy (0.25 μM PAC.PBP in A2058 melanoma and MDA-MB-231 breast carcinoma cells; 0.125 μM PAC.PBP and 25 μM GTB in AsPC-1 pancreatic cancer cells; 1 μM VRB and 15 μM cisPt in A459 lung carcinoma cells; 0.15 μM DXR in HepG2 hepatocellular carcinoma cells; 15 nM DCT in PC-3 prostate carcinoma cells; 0.15 μM PAC.PBP and 25 μM CarboPt in SK-OV-3 ovarian carcinoma cells; 3 μM 5-FU, 1 μM FA and 0.6 μM IRI in HT-29 colorectal carcinoma cells) was added to the cultured flasks 24 h after seeding. […]
Human A2058, MeWo and MelJuso melanoma cells, and mouse AtT-20 pituitary corticotroph tumor cells were from the American Type Culture Collection (ATCC). […] Cell numbers were determined using a Coulter Counter (Coulter Electronic Inc., Miami, Fla.). […] Cellular viability was assessed as previously reported (Mena, S. et al. Clin Cancer Res 13, 2658-2666 (2007)), by measuring trypan blue exclusion and leakage of lactate dehydrogenase activity. […]

[2] = system: HT-29 colorectal carcinoma; test: In vivo growth of HT-29 colorectal cancer xenografts; set-up: species or system human; conditions: HT-29, day 21

## COc1cc(/C=C/c2ccc(O)cc2)cc(OC)c1 [Pter, trans-3,5-dimethoxy-4′-hydroxystilbene]
ACTH; A549-bearing mice, day 35, 6 h circadian time
  ACTH: 79 ± 19 pg/mL plasma
ACTH; AsPC-1-bearing mice, day 28, 6 h circadian time
  ACTH: 112 ± 31 pg/mL plasma
ACTH; BxPC-3-bearing mice, day 35, 6 h circadian time
  ACTH: 68 ± 11 pg/mL plasma
ACTH; Caco-2-bearing mice, day 28, 6 h circadian time
  ACTH: 35 ± 15 pg/mL plasma
ACTH; HT-29-bearing mice, day 21, 6 h circadian time
  ACTH: 44 ± 16 pg/mL plasma
ACTH; HepG2-bearing mice, day 35, 6 h circadian time
  ACTH: 116 ± 25 pg/mL plasma
ACTH; LNCaP-bearing mice, day 49, 6 h circadian time
  ACTH: 49 ± 15 pg/mL plasma
ACTH; MCF-7-bearing mice, day 28, 6 h circadian time
  ACTH: 44 ± 9 pg/mL plasma
ACTH; MDA-MB-231-bearing mice, day 35, 6 h circadian time
  ACTH: 65 ± 17 pg/mL plasma
ACTH; PC-3-bearing mice, day 21, 6 h circadian time
  ACTH: 102 ± 30 pg/mL plasma
ACTH; SK-OV-3-bearing mice, day 49, 6 h circadian time
  ACTH: 63 ± 19 pg/mL plasma
ACTH; melanoma-bearing mice, pterostilbene treatment (FIG. 2B)
  ACTH levels in plasma: decreased
BxPC-3 cells
  cell growth or viability in vitro: did not affect
Human A375 melanoma
  decrease in tumor cell viability: approx. 30%
ASPC-1 cells
  cell growth or viability in vitro: did not affect
AsPC-1 pancreatic cancer
  Tumor vol.: 523 ± 168* mm^3
[1]
  Viable cells: 1317 ± 255 ×10^6
[2]
  Tumor vol.: 758 ± 214 mm^3
